Assay results published in ChEMBL document CHEMBL5131564, “Discovery of Potent and Selective Receptor-Interacting Serine/Threonine Protein Kinase 2 (RIPK2) Inhibitors for the Treatment of Inflammatory Bowel Diseases (IBDs)” (J Med Chem, 2022).
Activity calls are given as the source filed them. The calls are words filed in the database; no cut-off is given here.

Columns and labels:
[1] = Metabolic stability in human liver microsomes assessed as half life at 1 uM by LC/MS/MS analysis; type: ADME, Microsome
[2] = molecular target: T1, Receptor-interacting serine/threonine-protein kinase 1 (Homo sapiens) (UniProt Q13546); test: Inhibition of human RIPK1 assessed as active kinase incubated for 120 mins in presence of [gamma33P]ATP at 1000 nM by scintillation counting based radiometry assay relative to control; parameters: scale not given: the % may be the effect or the level left
T1 sequence (whole entry): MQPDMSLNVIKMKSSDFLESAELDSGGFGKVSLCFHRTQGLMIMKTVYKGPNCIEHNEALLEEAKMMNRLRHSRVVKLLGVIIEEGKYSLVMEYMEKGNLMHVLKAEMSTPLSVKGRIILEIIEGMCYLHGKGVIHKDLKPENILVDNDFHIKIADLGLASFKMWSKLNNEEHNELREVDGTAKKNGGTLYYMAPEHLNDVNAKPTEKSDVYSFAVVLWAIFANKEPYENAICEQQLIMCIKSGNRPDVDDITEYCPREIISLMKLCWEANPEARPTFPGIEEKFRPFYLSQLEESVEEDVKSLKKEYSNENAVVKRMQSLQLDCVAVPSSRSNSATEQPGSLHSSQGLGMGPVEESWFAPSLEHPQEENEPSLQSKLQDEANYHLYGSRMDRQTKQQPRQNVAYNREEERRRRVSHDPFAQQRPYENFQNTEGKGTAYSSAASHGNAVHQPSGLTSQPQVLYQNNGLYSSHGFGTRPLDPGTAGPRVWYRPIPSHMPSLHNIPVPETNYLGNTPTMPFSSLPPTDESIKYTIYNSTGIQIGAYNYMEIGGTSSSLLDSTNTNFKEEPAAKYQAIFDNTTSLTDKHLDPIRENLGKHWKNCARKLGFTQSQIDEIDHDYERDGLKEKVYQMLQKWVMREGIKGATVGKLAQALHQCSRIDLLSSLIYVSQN

[3] = Toxicity in rat H9c2 cells assessed as inhibitory rate at 10 uM relative to control; type: cell-based
[4] = Inhibition of MDP-stimulated TNFalpha production in mouse RAW264.7 cells at 100 nM incubated for 22 hrs by ELISA relative to control; type: functional
[5] = molecular target: Receptor-interacting serine/threonine-protein kinase 2 (Homo sapiens, UniProt O43353); test: Inhibition of human RIPK2 incubated for 120 mins in presence of [gamma33P]ATP by scintillation counting based radiometry assay
Sequence of Receptor-interacting serine/threonine-protein kinase 2 (O43353 whole entry): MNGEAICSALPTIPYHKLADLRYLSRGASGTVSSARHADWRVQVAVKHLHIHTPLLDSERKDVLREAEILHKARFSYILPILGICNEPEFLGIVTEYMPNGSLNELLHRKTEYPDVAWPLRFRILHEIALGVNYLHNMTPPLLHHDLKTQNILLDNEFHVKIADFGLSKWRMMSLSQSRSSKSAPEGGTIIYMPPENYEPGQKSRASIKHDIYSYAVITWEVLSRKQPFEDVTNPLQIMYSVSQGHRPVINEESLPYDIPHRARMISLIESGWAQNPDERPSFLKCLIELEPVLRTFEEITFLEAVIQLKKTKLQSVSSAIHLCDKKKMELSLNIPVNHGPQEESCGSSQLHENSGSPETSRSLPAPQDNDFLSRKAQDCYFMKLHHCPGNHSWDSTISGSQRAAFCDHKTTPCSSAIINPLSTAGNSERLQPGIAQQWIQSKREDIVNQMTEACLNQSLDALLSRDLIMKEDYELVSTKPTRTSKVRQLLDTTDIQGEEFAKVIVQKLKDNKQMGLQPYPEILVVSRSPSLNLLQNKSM

[6] = molecular target: Receptor-type tyrosine-protein kinase FLT3 (Homo sapiens) (UniProt P36888); test: Inhibition of human Flt3 using EAIYAAPFAKKK peptide substrate assessed as active kinase incubated for 40 mins in presence of [gamma33P]ATP at 1000 nM by scintillation counting based radiometry assay relative to control; parameters: scale not given: the % may be the effect or the level left
Sequence of Receptor-type tyrosine-protein kinase FLT3 (Homo sapiens) (P36888 whole entry): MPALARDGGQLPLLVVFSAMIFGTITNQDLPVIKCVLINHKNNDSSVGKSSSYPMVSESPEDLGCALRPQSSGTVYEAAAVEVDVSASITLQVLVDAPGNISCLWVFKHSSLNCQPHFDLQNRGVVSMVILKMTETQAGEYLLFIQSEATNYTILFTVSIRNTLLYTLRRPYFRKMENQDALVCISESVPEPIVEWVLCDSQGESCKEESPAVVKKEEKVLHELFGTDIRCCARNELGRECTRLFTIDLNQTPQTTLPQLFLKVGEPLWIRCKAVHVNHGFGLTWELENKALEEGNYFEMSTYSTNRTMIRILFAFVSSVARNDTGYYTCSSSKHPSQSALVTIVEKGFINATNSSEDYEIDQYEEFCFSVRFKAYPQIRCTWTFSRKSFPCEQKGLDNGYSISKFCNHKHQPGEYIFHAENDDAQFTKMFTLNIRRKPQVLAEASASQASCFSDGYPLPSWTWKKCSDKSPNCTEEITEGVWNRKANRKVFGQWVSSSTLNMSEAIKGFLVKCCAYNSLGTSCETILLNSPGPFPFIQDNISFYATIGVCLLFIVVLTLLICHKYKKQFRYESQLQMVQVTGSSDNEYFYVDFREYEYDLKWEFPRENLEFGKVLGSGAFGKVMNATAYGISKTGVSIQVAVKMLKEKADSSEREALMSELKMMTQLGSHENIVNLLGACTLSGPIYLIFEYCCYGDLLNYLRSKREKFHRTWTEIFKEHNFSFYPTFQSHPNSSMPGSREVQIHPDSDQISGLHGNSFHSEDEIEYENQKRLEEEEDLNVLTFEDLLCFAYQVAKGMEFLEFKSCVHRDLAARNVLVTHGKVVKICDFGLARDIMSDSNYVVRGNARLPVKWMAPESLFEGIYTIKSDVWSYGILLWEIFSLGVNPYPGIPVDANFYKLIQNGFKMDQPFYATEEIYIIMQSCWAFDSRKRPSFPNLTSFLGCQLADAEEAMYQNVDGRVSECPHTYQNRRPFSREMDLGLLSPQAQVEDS

[7] = Toxicity in rat H9c2 cells assessed as inhibitory rate; type: cell-based
[8] = Inhibition of LPS/MDP-stimulated TNFalpha production in C57BL/6J mouse BMDM cells by ELISA relative to control; type: functional, cell-based
Mus musculus = test: Anti-inflammatory activity against DSS-induced acute ulcerative colitis C57BL/6 mouse model assessed as recovery of weight loss at 20 mg/kg, po for 6 consecutive days; type: functional, organism-based

Structure (SMILES) | half-life at 1 µM [1] | Activity [2] | inhibition at 10 µM [3] | inhibition at 0.1 µM [4] | IC50 [5] | Activity [6] | IC50 [7] | IC50 [8] | Activity (Mus musculus)
Nc1ccc(-c2cn([C@H]3CC[C@@H](N)CC3)c3ncnc(N)c23)cc1F | 69.3 min | 112% | 82% | 72% | 4 nM |  |  |  | 
COc1ccc(-c2cn([C@H]3CC[C@@H](NC(=O)c4cc(OC)c(OC)c(OC)c4)CC3)c3ncnc(N)c23)cc1 |  | 87% |  | 49% | 3.9 nM | 85% |  |  | 
CCC(=O)N[C@H]1CC[C@@H](n2cc(-c3ccc(OC)cc3)c3c(N)ncnc32)CC1 |  | 77% |  | 53% | 10.8 nM | 54% |  |  | 
Nc1ccc(-c2cn([C@H]3CC[C@@H](N)CC3)c3ncnc(N)c23)cc1 |  | 100% |  | 22% |  |  |  |  | 
COc1ccc(-c2cn([C@H]3CC[C@@H](NCC#N)CC3)c3ncnc(N)c23)cc1 | 2.7 min | 99% |  | 62% | 6.7 nM | 46% |  |  | 
Nc1ncnc2c1c(-c1cc(F)cc(F)c1)cn2[C@H]1CC[C@@H](N)CC1 |  | 114% |  | 56% |  |  |  |  | 
Nc1ncnc2c1c(-c1ccc3c(c1)OCO3)cn2[C@H]1CC[C@@H](N)CC1 | > 120 min | 119% | 64% | 68% | 0.8 nM |  |  |  | 
CC(C)(C)c1ccc(-c2cn([C@H]3CC[C@@H](N)CC3)c3ncnc(N)c23)cc1 |  | 93% |  | -40% |  |  |  |  | 
Cc1ccc(-c2cn([C@H]3CC[C@@H](N)CC3)c3ncnc(N)c23)cc1C | 22.4 min |  |  |  |  |  |  |  | 
Nc1ccccc1-c1cn([C@H]2CC[C@@H](N)CC2)c2ncnc(N)c12 |  | 112% |  | -35% |  |  |  |  | 
COc1ccc(-c2cn([C@H]3CC[C@@H](NC(C)=O)CC3)c3ncnc(N)c23)cc1 |  | 80% |  | 27% | 11.7 nM | 57% |  |  | 
Nc1ncnc2c1c(-c1cccc(Cl)c1)cn2[C@H]1CC[C@@H](N)CC1 | > 120 min | 116% | 98% | 84% | 5.9 nM |  |  |  | 
Nc1ncnc2c1c(-c1cccc(F)c1)cn2[C@H]1CC[C@@H](N)CC1 | 107 min | 115% | 50% | 71% | 6.4 nM |  |  |  | 
C=CCN[C@H]1CC[C@@H](n2cc(-c3ccc(OC)cc3)c3c(N)ncnc32)CC1 | 6.3 min | 85% |  | 76% | 5.2 nM | 58% |  |  | 
Cc1ccccc1-c1cn([C@H]2CC[C@@H](N)CC2)c2ncnc(N)c12 | > 120 min | 99% | 54% | 88% | 7.9 nM |  |  |  | 
Cc1cccc(-c2cn([C@H]3CC[C@@H](N)CC3)c3ncnc(N)c23)c1 | 23.7 min | 105% | 18% | 83% | 10.7 nM |  |  |  | 
CCc1ccc(-c2cn([C@H]3CC[C@@H](N)CC3)c3ncnc(N)c23)cc1 |  | 97% |  | 46% |  |  |  |  | 
CC(C)c1ccc(-c2cn([C@H]3CC[C@@H](N)CC3)c3ncnc(N)c23)cc1 |  | 95% |  | -52% |  |  |  |  | 
COc1ccc(-c2cn([C@H]3CC[C@@H](NCc4ccccc4)CC3)c3ncnc(N)c23)cc1 | 1.6 min | 94% |  | 76% | 3 nM | 70% |  |  | 

Structure (SMILES) | half-life at 1 µM [1] | Activity [2] | inhibition at 10 µM [3] | inhibition at 0.1 µM [4] | IC50 [5] | Activity [6] | IC50 [7] | IC50 [8] | Activity (Mus musculus)
Nc1cccc(-c2cn([C@H]3CC[C@@H](N)CC3)c3ncnc(N)c23)c1 |  | 98% |  | 16% |  |  |  |  | 
Nc1ncnc2c1c(-c1ccc(O)cc1)cn2[C@H]1CC[C@@H](N)CC1 | 133 min | 96% | 61% | 75% | 6.3 nM |  |  |  | 
Nc1ncnc2c1c(-c1ccsc1)cn2[C@H]1CC[C@@H](N)CC1 |  | 99% |  | 16% |  |  |  |  | 
Cc1ccc(-c2cn([C@H]3CC[C@@H](N)CC3)c3ncnc(N)c23)cc1 | 27.4 min | 114% | 28% | 99% | 2.4 nM |  |  |  | 
Cc1ccc(-c2cn([C@H]3CC[C@@H](N)CC3)c3ncnc(N)c23)cc1F | 26.9 min |  |  |  |  |  |  |  | 
COc1ccc(-c2cn([C@H]3CC[C@@H](NS(=O)(=O)C(F)(F)F)CC3)c3ncnc(N)c23)cc1 |  | 73% |  | -2% | 21.1 nM | 55% |  |  | 
CC(C)Cc1ccc(-c2cn([C@H]3CC[C@@H](N)CC3)c3ncnc(N)c23)cc1 |  | 117% |  | -23% |  |  |  |  | 
COc1ccc(-c2cn([C@H]3CC[C@@H](NC(=O)C(C)(C)C)CC3)c3ncnc(N)c23)cc1 |  | 77% |  | 45% | 15.6 nM | 47% |  |  | 
Nc1ncnc2c1c(-c1ccoc1)cn2[C@H]1CC[C@@H](N)CC1 |  | 101% |  | 13% |  |  |  |  | 
COc1ccc(-c2cn([C@H]3CC[C@@H](NC(=O)C(C)Cl)CC3)c3ncnc(N)c23)cc1 (stereo not given in full) |  | 82% |  | 51% | 16.7 nM | 63% |  |  | 
Cc1ccc(-c2nn(C(C)(C)CNC(=O)c3ccncc3)c3ncnc(N)c23)cc1 | 33.8 min | 95% | 50% | 68% | 33.8 nM |  | 13100 nM | 57.7 nM | 
Cc1ccc(-c2cn([C@H]3CC[C@@H](N)CC3)c3ncnc(N)c23)c(Cl)c1 | > 120 min |  |  |  |  |  | 11400 nM | 2.3 nM | Active
Nc1ncnc2c1c(-c1ccccc1)cn2[C@H]1CC[C@@H](N)CC1 | 148 min | 104% | 44% | 70% | 9 nM |  |  |  | 
COc1ccc(-c2cn([C@H]3CC[C@@H](N)CC3)c3ncnc(N)c23)cc1 | 108 min | 97% |  | 69% | 4.2 nM | 68% |  | 3.8 nM | 
COc1ccc(-c2cn([C@H]3CC[C@@H](NCc4cccc(OC(F)(F)F)c4)CC3)c3ncnc(N)c23)cc1 |  | 105% |  | 54% | 18.5 nM | 86% |  |  | 
CCOc1ccc(-c2cn([C@H]3CC[C@@H](N)CC3)c3ncnc(N)c23)cc1 |  | 98% |  | -15% |  |  |  |  | 
CCCC(=O)N[C@H]1CC[C@@H](n2cc(-c3ccc(OC)cc3)c3c(N)ncnc32)CC1 |  | 72% |  | 31% | 6 nM | 49% |  |  | 
Nc1ncnc2c1c(-c1ccc(F)cc1)cn2[C@H]1CC[C@@H](N)CC1 | > 120 min | 125% | 35% | 72% | 1.6 nM |  |  | 1.7 nM | 
Cc1ccc(-c2cn([C@H]3CC[C@@H](N)CC3)c3ncnc(N)c23)cc1Cl | 28.2 min |  |  |  |  |  |  |  | 
